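96-well plates; 48 h exposure; 5 concentrations. Endpoints by linear interpolation between flanking doses. Not reached: highest tested concentration assigned. TGI denotes the concentration required for complete inhibition of growth.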
What was measured:
Test in all cases: DTP human tumour cell line panel, 48 h
HT29 colon = system: HT29 colon
NCI/ADR-RES ovarian = system: NCI/ADR-RES ovarian
MDA-N = system: MDA-N
LOX IMVI melanoma = system: LOX IMVI melanoma
OVCAR-5 ovarian = system: OVCAR-5 ovarian
SF-295 CNS = system: SF-295 CNS
HL-60(TB) leukemia = system: HL-60(TB) leukemia
A498 renal = system: A498 renal
MDA-MB-231 breast = system: MDA-MB-231 breast
CCRF-CEM leukemia = system: CCRF-CEM leukemia

Row | Compound | TGI (HT29 colon) | TGI (NCI/ADR-RES ovarian) | TGI (MDA-N) | TGI (LOX IMVI melanoma) | TGI (OVCAR-5 ovarian) | TGI (SF-295 CNS) | TGI (HL-60(TB) leukemia) | TGI (A498 renal) | TGI (MDA-MB-231 breast) | TGI (CCRF-CEM leukemia)
1 | CCN1CCC(O)(/C=C/c2ccc(Cl)c(Cl)c2)C(C(=O)/C=C/c2ccc(Cl)c(Cl)c2)C1 (centres undefined) | 1.82 µM | 2.27 µM | 2.89 µM | 2.02 µM | 2.52 µM | 1.74 µM | 0.905 µM | 2.91 µM | 1.6 µM | 1.13 µM
2 | CN(C)CC(O)CNC(=O)Nc1ccccc1 (centres undefined) | > 100 µM | > 100 µM | > 100 µM | > 100 µM | > 100 µM | > 100 µM | > 100 µM | > 100 µM | > 100 µM | > 100 µM
3 | CN(CCCNC(=O)c1[nH]nc2c1ccc1ccccc12)CCCNC(=O)c1[nH]nc2c1ccc1ccccc12 | 34.6 µM | > 100 µM | 4.52 µM | 25.9 µM | 37.2 µM | 32.5 µM | 10.4 µM | 31.9 µM | 23.4 µM | 29.4 µM
4 | O=S1(=O)OCCOS(=O)(=O)C1C1c2ccccc2-c2ccccc21 | > 100 µM | 85.1 µM | > 100 µM | 89 µM | > 100 µM | > 100 µM | 58.9 µM | > 100 µM | > 100 µM | 89.4 µM
5 | c1ccc(C(OCCN2CC3CCC(C2)N3)c2ccccc2)cc1 | > 100 µM | > 100 µM | 79.6 µM | > 100 µM | > 100 µM | > 100 µM | > 100 µM | > 100 µM | > 100 µM | > 100 µM
6 | CC(NC(=O)C(NC(=O)C(NC(=O)C(F)(F)F)C(C)C)C(C)C)C(=O)Oc1c(Cl)c(Cl)c(Cl)c(Cl)c1Cl (centres undefined) | > 100 µM | > 100 µM | > 100 µM | > 100 µM | > 100 µM |  | > 100 µM | > 100 µM | > 100 µM | > 100 µM
7 | COC(=O)C1=C(C(=O)OC)SC2(S1)C(C(=O)OC)=C(C(=O)OC)Sc1c2ssc1=O | 1.78 µM | 2.82 µM | 3.57 µM | 0.817 µM | 5.02 µM | 27.6 µM | 0.0492 µM | 3.68 µM | 3.55 µM | 0.307 µM
8 | Clc1cccc(C=NC23CC4CC(CC(C4)C2)C3)c1Cl | > 10 µM | > 10 µM | > 10 µM | > 10 µM | > 10 µM | > 10 µM | > 10 µM | > 10 µM | > 10 µM | > 10 µM
9 | CN1CN(c2ccccc2)C2(CCN(C(=O)OC(C)(C)C)CC2)C1=O | > 100 µM | > 100 µM | > 100 µM | > 100 µM | > 100 µM | > 100 µM | > 100 µM | > 100 µM | > 100 µM | > 100 µM
10 | Cc1ccc(S(=O)(=O)N(CC(O)COc2ccccc2)c2ccccc2Cl)cc1 (centres undefined) | 31.9 µM | 37.8 µM | 33.2 µM | 38.8 µM | 51 µM | 43.5 µM | 67.8 µM | 35 µM | 29.3 µM | 40.4 µM
11 | Cc1ccnc2[nH]c(-c3ccc(Cl)cc3)cc(=O)c12 | > 100 µM | > 100 µM | 4.59 µM | > 100 µM | > 100 µM | > 100 µM | 4.74 µM | 46.6 µM | > 100 µM | > 100 µM
12 | CC(C)(C)c1ccc(OCCOc2ccc(C(C)(C)C)cc2NC=O)c(NC=O)c1 | 7.32 µM | 37.7 µM | 27.3 µM | 19.2 µM | 75.5 µM | 25 µM | > 100 µM | 40 µM | 40.5 µM | > 45.3 µM
13 | O=C(NC12CC3CC(CC(C3)C1)C2)n1cnc2c(Cl)ncnc21 | 70.3 µM | > 100 µM | 45.9 µM | 37.9 µM | > 100 µM | > 100 µM | 16.9 µM | > 100 µM | > 100 µM | 45.7 µM
14 | CCOP(=O)(OCC)C(Cc1cn(S(=O)(=O)c2ccc(C)cc2)cn1)C(=O)O (centres undefined) | > 100 µM | > 100 µM | > 100 µM | > 100 µM | > 100 µM | > 100 µM | > 100 µM | > 100 µM | > 100 µM | > 100 µM
15 | COC(=O)[C@@]1(Cc2ccc(OC(C)=O)cc2)Cc2cc3ccccc3n2N1 | > 100 µM | 96.4 µM | 77.6 µM | > 100 µM | > 100 µM | > 100 µM | 80.8 µM | 87.3 µM | > 100 µM | > 100 µM
16 | O=C1/C(=C/Cc2ccco2)N=C(c2ccccc2)N1c1nc2ccc(Sc3ccccc3)cc2[nH]1 | 73.6 µM | 72.4 µM | 25 µM | 43.7 µM | 96.9 µM | > 100 µM | 45.4 µM | 30.7 µM | 57 µM | 44.2 µM
17 | CCc1c[n+]2c(cc1C1=CN3c4ccccc4[C@]45CCN6C/C(=C/CO)[C@H](C[C@H]64)[C@@H]([C@@H]1O)[C@H]35)-c1[nH]c3ccccc3c1CC2 | > 50 µM | > 50 µM | > 50 µM | > 50 µM | > 50 µM | > 50 µM | > 50 µM | > 50 µM | > 50 µM | > 50 µM
